Experimental data: patent US9943687B2, “Method of treating parkinson's disease and other movement disorders” (Duke University, priority 2007, dated 2018)
Values joined by “and” are separate entries in the source; they are usually repeats but may differ in a detail not shown here. Equal entries are not always repeated.

Columns and labels:
tyrosine hydroxylase = assay: Tyrosine hydroxylase staining and quantification in striatum of 6-OHDA lesioned rats; assay type: in vivo, Long-Evans rats; conditions: 6-OHDA three sites each side, 7 μg per site
Experimental: Rats received a total of […] 6-OHDA, injected in 3 locations of the striatum on each side. The injections contained a saline solution with 3.5 mg/ml 6-OHDA and 0.05% ascorbate. Anteroposterior, mediolateral and dorsoventral coordinates for the injections were: +1.0, +/−3.0, −5.0; −0.1, +/−3.7, −5.0 and −1.2, +/−4.5 and −5.0 (Winkler et al, Neurobiol. Dis. 10:165 (2002)).
The extent and position of striatal lesions was confirmed by TH immunohistochemistry. For quantification of TH-staining, digital photos of the individual sections were taken with a 16× microscope (Stemi 2000-c, Zeiss) under identical illumination conditions. The range in brightness was practically identical for every photo ranging from no light (inside the microscope) at the outer edge to the brightest non-stained part of each section. Images were converted to grey-scale bitmap format with an 8-bit dynamic range in brightness.

[1] = test system: striatal levels of dopamine; assay: Tissue content analysis of striatal dopamine and metabolites (HPLC-EC) after AMPT; assay type: in vivo, wild-type C57/BL6J mice
Experimental: FIGS. 11A-11C. Tissue content analysis confirms that acute pharmacological dopamine depletion in wild-type mice leads to striatal dopamine levels similar to those observed in PD patients. […] Average quantities in depleted animals were reduced for dopamine, DOPAC and HVA to: 4.5 ng, 0.17 ng and 0.41 ng per mg tissue, respectively, compared to 14.4 ng, 0.74 ng and 1.36 ng per mg tissue, for saline injected control animals (**=p<0.005, Mann-Whitney test, n=6 in each group). Tissue content analysis of dopamine and metabolites.
Striatal tissue content of dopamine was assessed using high performance liquid chromatography with electrochemical detection, as previously described. Striata were rapidly dissected, frozen, and stored at −80° C. Later, tissue samples were homogenized in 0.1M HClO4 containing 100 ng/ml 3,4-dihydroxybenzylamine (DHBA) as an internal standard. Homogenates were centrifuged for 10 min at 10,000×g. Supernatants were filtered through 0.22 μm filter and analyzed for levels of dopamine using HPLC-EC. Monoamines and metabolites were separated on a microbore reverse-phase column (C-18, 5 μm, 1×150 mm, Unijet, BAS). The volume of injection was 5 μl.
(§1) The first set of experiments was carried out using an inducible mouse model of PD, first in wild-type animals and then in dopamine-transporter knock-out (DAT-KO) mice (Sotnikova et al, PLoS Biol. 3:e271 (2005)). Through pharmacological inhibition of dopamine synthesis, acute dopamine depletion was induced in both types of animals in order to reliably document the effects of DCS during a severe parkinsonian-like state of akinesia. In agreement with previous experiments, the characteristic behavioral and electrophysiological changes following inhibition of dopamine synthesis was confirmed in these animals (Carlsson, Acta Neurol. Scand. Suppl 51:11 (1972), Costa et al, Neuron. 52:359 (2006), Sotnikova et al, PLoS Biol. 3:e271 (2005)). In patients, the cardinal symptoms of idiopathic PD, rigidity, resting tremor and brady-/hypokinesia, have been reported to be clinically apparent following degeneration of 60-70% of the dopaminergic neurons of the substantia nigra pars compacta, which in turn results in a […] reduction of striatal dopamine levels (Brooks et al, Biol. Psychiatry 59:908 (2006), Lloyd et al, J. Pharmacol. Exp. Ther. 195:453 (1975)). […] Secondly, a pronounced muscle tremor was evident during resting periods, which was reflected in characteristic oscillatory patterns in electromyographic (EMG) recordings obtained from chronically implanted microwires in the nuchal muscles (FIG. 12). This tremor was suppressed during locomotion bouts. […] (FIG. 13A, see also Drouot et al, Neuron 44:769 (2004) and Sakai et al, Brain Res. 633:144 (1994)).

wild-type mice [2] = assay: Open-field locomotion after acute pharmacological dopamine depletion; assay type: in vivo, wild-type C57/BL6J mice
Experimental: (§2) Rats were placed in a circular open-field (90 cm diameter) for 70 min (10 min adaptation and 1 h behavioural recording). The animals were then allowed to rest in its home cage for one hour. After that, the animals were reintroduced into the open-field and dorsal column stimulation (DCS) was applied every 10 minutes for 30 seconds. In mice, locomotion was documented both by video recordings and through an automated tracking system based in infra-red beams (Med Associates Inc., VT). Recordings were obtained before and after dopamine-depletion, and DCS was applied as described below.
(§3) The movements of the rats in the open-field were extracted from the digitized video recordings, with approximately 1 mm spatial resolution, with custom designed algorithms implemented in command interpreting software (The MathWorks Inc., MA). For mice, scored locomotion from the infra-red tracking system was binned into 500 ms bins (original resolution 50 ms). For locomotion extraction from video data, single frames with a 500 ms interval were used.
The number of bins used for histograms of locomotion speeds was adjusted according to the maximum speed scored in a single bin in the slowest condition (i.e. 500 mm/s for the rats and 180 mm/s for the mice). The relatively few (<0.3%) events with locomotion components faster than the upper limit found in the other conditions were assigned to the fastest bin. The number of events within each speed interval was summed and the relative change in response to DCS was calculated. A lower threshold just above the quantal step was used in the analysis of histogram distributions, i.e. 10 mm/500 ms for both mouse and rat data.
as §1

wild-type mice [3] = assay: Catalepsy test (forepaws on bar 3 cm above the ground); assay type: in vivo, wild-type C57/BL6J mice; conditions: after the 6 h depletion period
Experimental: The first set of experiments was carried out using an inducible mouse model of PD, first in wild-type animals and then in dopamine-transporter knock-out (DAT-KO) mice (Sotnikova et al, PLoS Biol. 3:e271 (2005)). Through pharmacological inhibition of dopamine synthesis, acute dopamine depletion was induced in both types of animals in order to reliably document the effects of DCS during a severe parkinsonian-like state of akinesia. In agreement with previous experiments, the characteristic behavioral and electrophysiological changes following inhibition of dopamine synthesis was confirmed in these animals (Carlsson, Acta Neurol. Scand. Suppl 51:11 (1972), Costa et al, Neuron. 52:359 (2006), Sotnikova et al, PLoS Biol. 3:e271 (2005)). In patients, the cardinal symptoms of idiopathic PD, rigidity, resting tremor and brady-/hypokinesia, have been reported to be clinically apparent following degeneration of 60-70% of the dopaminergic neurons of the substantia nigra pars compacta, which in turn results in a […] reduction of striatal dopamine levels (Brooks et al, Biol. Psychiatry 59:908 (2006), Lloyd et al, J. Pharmacol. Exp. Ther. 195:453 (1975)). […]

[4] = test system: striatal dopamine concentrations; conditions: cited from earlier work
corticostriatal circuit = assay: Corticostriatal LFP oscillations / dopamine spectral index after AMPT injection; assay type: in vivo, C57/J (wild type) male mice; conditions: after AMPT injection 250 mg/kg i.p.
Experimental: Two C57/J (wild type) male mice where implanted with peripheral nerve cuff electrodes, microwire electrodes arrays in the striatum and motor cortex and one EMG wire in the trapezium muscle. After a week of recovery, a series of experiments were carried out. Individual animals were introduced to the open field activity (OFA) monitor cage, which permitted tracking of the animal's locomotive activity. After 10 minutes, the animal was injected with AMPT (250 mg/kg, i.p.) to produce a partial depletion in dopamine brain levels. The stimulation started 15 minutes after the injection. It was delivered in 2-minute windows, alternated with 2 minutes of rest (no stimulation). The amplitude was fixed at 0.4 mA. This value was selected on the basis that it produced a noticeable effect on the animal (soft scratching of the whiskers pads) at the onset of stimulation but no further signs of discomfort or pain. Sixteen different frequency values delivered in a pseudorandom way (1-130 Hz) were tested.
The key observation in these experiments was that IS at some frequencies could revert this strong neural oscillation pattern to the type of desynchronized firing activity observed during the control period. […] In order to quantify this observation, the ratio between the LFP power in the 2-4 Hz and 0-4 Hz range was used as an indicator of the predominant oscillatory pattern (FIG. 6). […]

DAT-KO mice [5] = assay: Minimum L-DOPA dose (alone or with DCS) required to restore locomotion; assay type: in vivo; conditions: AMPT-treated DAT-KO mice
Experimental: as §2, §3
In order to find the minimum dose of L-DOPA (alone or combined with DCS) required to restore locomotion, a severely dopamine-depleted akinetic animal model was used, namely mice lacking the gene for the presynaptic dopamine membrane transporter (DAT-KO). […]

DAT-KO mice [6] = assay: LFP spectral index in severely dopamine depleted animals; assay type: in vivo; conditions: last hours of testing period, coinciding with onset of locomotion
Experimental: FIG. 20. Local field potentials are shifted to higher frequencies as a result of DCS even in severely dopamine depleted animals. Average spectral indices (power ratio: [25-55]/[1.5-25] Hz) calculated for DCS+L-DOPA (black) and L-DOPA (grey) treated animals, respectively. DCS induced spectral changes even at the lowest L-DOPA dose tested (a single 1 mg/kg injection) while the spectral change in the L-DOPA only group occurred during the last hours of the testing period (after more than 20 mg/kg L-DOPA in total) coinciding with onset of locomotion.
Struck by the dramatic functional recovery on the behavioral level, the electrophysiological changes associated with motor improvements were analyzed next. […] The spectral shift was maintained throughout the stimulation period and lasted for ˜50 s following the off-set of stimulation. This indicates a prolonged shift in the activity state of these brain structures, also ruling out any major effects of contamination in the spectrograms from stimulation currents (FIG. 16C). To condense the spectral shift into a single measure, a spectral index was computed by dividing the spectral range analyzed into an upper and lower half and calculating the ratio of the summed power of the frequencies in the two intervals [(25-55 Hz)/(1.5-25 Hz)]. […]

[7] = two i.p. injections of 250 mg/kg, 2 hours apart, measured 4 hours after last injection, n=6

## NCCc1cc(O)c(O)cc1O [6-OHDA]
Tyrosine hydroxylase
  tyrosine hydroxylase staining relative to sham treated controls: ~20% and 21%

## CC(N)(Cc1ccc(O)cc1)C(=O)O (stereo not drawn) [AMPT, α-methyl-p-tyrosine]
[1]; two i.p. injections (250 mg/kg) during a 6 h period
  reduction of striatal dopamine levels: 69%
[1]; [7]
  striatal DOPAC tissue content in depleted animals: 0.17 ng per mg tissue
  striatal HVA tissue content in depleted animals: 0.41 ng per mg tissue
[1]; two i.p. injections of 250 mg/kg, 2 hours apart, measured 4 hours after last injection, n=6, 250 mg/kg
  striatal dopamine tissue content in depleted animals: 4.5±2.0 ng per mg tissue and 4.5 ng per mg tissue
wild-type mice [2]; depleted animals during testing periods
  average amount of locomotion as percentage of control values: ~10%
wild-type mice [2]; depleted animals, n=14
  average locomotion score in open-field (mean±SEM): 0.4±0.02 mm/s
wild-type mice [2]; fast speed interval
  locomotion score, fast movements, as percentage of non-depleted animals: 0.3%
wild-type mice [2]; medium speed interval
  locomotion score, medium movements, as percentage of non-depleted animals: 2.0%
wild-type mice [2]; slow speed interval
  locomotion score, slow movements, as percentage of non-depleted animals: 10.5%
wild-type mice [3]
  catalepsy: time unable to remove the forepaws from bar: at least 30 s
[4]; 250 mg/kg i.p.
  dopamine levels after AMPT in DAT-KO mice: virtually undetectable levels
[4]; DAT-KO mice treated with AMPT
  duration of severe akinesia, rigidity and tremors: up to 16 hours
  striatal dopamine concentration relative to control animals: 0.2%
Corticostriatal circuit
  frequency of strong LFP synchronization after dopamine depletion: 4 Hz
Corticostriatal circuit; basal value around 0.5
  dopamine spectral index (LFP power 2-4 Hz / 0-4 Hz): ~1

## N[C@@H](Cc1ccc(O)c(O)c1)C(=O)O [L-DOPA]
DAT-KO mice [5]; L-DOPA injections every hour with increasing dose
  L-DOPA injection dose at which locomotion first occurred: 5 mg/kg
DAT-KO mice [5]; cumulative dose of hourly injections
  total L-DOPA dose when locomotion first occurred: 15 mg
DAT-KO mice [6]
  total L-DOPA dose at which spectral change occurred: more than 20 mg/kg
